Source: patent US8536115B2, “Compositions and methods for modulating AMPA receptor-mediated excitotoxicity” (Centre for Addiction and Mental Health, priority 2006, dated 2013)
No end group written: not given here.

Columns and labels:
hippocampal CA1 neurons = experiment: Four vessel occlusion ischemia model, cresyl violet-stained nuclei in CA1; format: in vivo, rat; settings: 1 μM, 0.5 μl into hippocampus, 5-day recirculation
Experimental: In this study, a cannula (small diameter stainless steel tubes) was implanted in the animal one week before surgery. This cannula was used to deliver the peptide GluR2 NT1-3-2 (1 μM, 0.5 μl) into hippocampus where GAPDH-GluR2 interaction is considered to occur. On the surgery day, the four vessel occlusion ischemia model was performed in order to induce ischemia. Animals were treated with the peptide GluR2 NT1-3-2 either before (30 min) or after (2 hour) the induction of ischemia to examine the neuroprotective effect of the peptide. After a 5-day recirculation period, animals were decapitated, the brains were removed and dissected to harvest the hippocampus. Cresyl violet was used to stain alive neurons in hippocampus region of each animal. Cresyl violet-stained nuclei were observed by microscope and total number of stained nuclei in CA 1 region was summarized and normalized to the sham-operated group.

[1] = tested on: cultured rat hippocampal neurons; experiment: AMPAR-mediated cell death (PI fluorescence) in cultured rat hippocampal neurons; format: cell-based; settings: 100 μM KA, 10 μM MK-801, 2 μM nimodipine, 1 hr; n=9
Experimental: (§1) Primary cultures from hippocampus were prepared from fetal Wistar rats (embryonic day 17-19) on Cell^+ (Sarstedt) culture dishes as previously described (73). The cultures were used for experiments on 12-15 d after plating. Hippocampal cultures were pretreated with GluR2 NT1-3-2 peptides before kainic acid treatment.
Cells were allowed to recover for 24 hours at 37° C. To quantify AMPA-mediated cell death, culture medium was replaced by extracellular solution containing 50 μg/ml of propidium iodide (PI) (Invitrogen). After 30 minutes incubation at 37° C., fluorescence intensity in each well was measured with a plate reader (Victor3; PerkinElmer). […]
To examine the GAPDH:AMPAR interactions in a relevant cellular milieu, primary cultures of rat hippocampal neurons were utilized in parallel experiments. We have previously shown in FIG. 21C that pre-incubating hippocampal neurons with the GluR2 NT1-3-2 peptide could disrupt the GAPDH-GluR2 interaction that was promoted by AMPAR activation. We subsequently examined if disruption of this interaction in hippocampal neurons could rescue cells from AMPAR-mediated cell death. AMPAR-mediated cell death was induced by pretreating neurons with kainic acid (KA; 100 μM, 1 hour) in the presence of NMDA receptor and Ca^2+ channel antagonists (10 μM MK-801 and 2 μM nimodipine, respectively).

GAPDH-p53 interaction = experiment: Co-immunoprecipitation of GAPDH with p53; format: cell-based; settings: extracted nuclear proteins; AMPAR activation
Experimental: (§2) Protein affinity purification, in vitro binding, co-immunoprecipitation and Western blot analyses were performed as previously described (73, 79). Antibodies used for immunoprecipitation, Western blots and cell surface ELISA assays included GAPDH (polyclonal from Abcam, monoclonal from Chemicon), GluR2 (Western blots: Chemicon; immunoprecipitation: Upstate), HA (monoclonal, Covance), α-tubulin (monoclonal, Sigma-Aldrich), LaminB1 (Zymed Laboratories).
(§3) Nuclei isolation was prepared as described previously (55, 66). Briefly, cells were gently rinsed twice with ice-cold PBS. And scraped in 1 ml of solution 1 (10 mM Tris-HCl, pH7.4, 100 mM NaCl2, 2.5 mM MgCl2, 0.5% NP-40, proteinase inhibitor and PMSF) per 10-cm plate. Then cells were homogenized by four passages through a 25-gauge needle and spin at 3000 g briefly. Pellets containing nuclei were subsequently utilized in biochemical assays.
(§4) Thus, we tested whether GluR2NT and GAPDH can interact with p53 using affinity “pull down” purification experiments. […] To identify the p53 interacting domain on GAPDH, GST-fusion proteins encoding truncated fragments of GAPDH were constructed and used in affinity purification assays (FIG. 24D). […] Furthermore, we confirmed the essential role of I221-E250 in maintaining GAPDH-p53 coupling.

GAPDH:AMPAR complex [2] = biological target: T1, GAPDH:AMPAR complex (Rattus norvegicus, UniProt P04797); experiment: Co-immunoprecipitation of GAPDH with GluR2 in primary cultures of rat hippocampal neurons; format: cell-based; settings: preincubation 10 μM, 1 hour; 100 μM kainic acid, 30 min
T1 construct: endogenous in cells; host or cells: primary hippocampal neurons from fetal Wistar rats
Experimental: as §1, §2

GAPDH:AMPAR complex [3] = biological target: T2, GAPDH:AMPAR complex (Homo sapiens, UniProt P04406); experiment: Co-immunoprecipitation of GAPDH with GluR2 in HEK-293T cells expressing GluR1/GluR2; format: cell-based
T2 construct: It should be noted that HEK293T cells expresses endogenous GAPDH; expressed in transfected cells; host or cells: HEK-293T (GluR1 and GluR2 transfected; GAPDH endogenous)
Experimental: as §2

[4] = tested on: transfected HEK-293T cells; experiment: Cell-ELISA of cell surface GluR2 and GAPDH in transfected HEK-293T cells; format: cell-based; settings: GluR1/GluR2; glutamate
Experimental: Cell-ELISA assays (colorimetric assays) were done essentially as previously described (82). […] Cells were incubated in 1% (W/V) glycine for 10 minutes at 4° C. to recover from the fixing. Cells were then incubated with a monoclonal antibody against specific antibodies for the purpose of labeling the receptors or proteins on the cell surface under non-permeabilized conditions or the entire receptor pool under permeabilized conditions. After incubation with corresponding HRP-conjugated secondary antibodies (Sigma-Aldrich), the HRP substrate o-phenylenediamine (Sigma-Aldrich Co) was added to produce a color reaction that was stopped with the equal volume of 3N HCl. Fluorescence intensity in each well was measured with a plate reader (Victor3; PerkinElmer). […] Afterwards, cells were scrapped from the dishes, and the protein concentration of each dish was measured. The results of cell surface expression of receptors or proteins were calibrated by the protein concentration of each well. Analysis was done using at least 9 separate wells in each group.

[5] = tested on: nontransfected HEK-293T cells; experiment: Cell death in HEK-293T cells in the absence of GluR1/GluR2 co-expression; format: cell-based
Experimental: (§5) Cells were allowed to recover for 24 hours at 37° C. To quantify AMPA-mediated cell death, culture medium was replaced by extracellular solution containing 50 μg/ml of propidium iodide (PI) (Invitrogen). After 30 minutes incubation at 37° C., fluorescence intensity in each well was measured with a plate reader (Victor3; PerkinElmer). […] Primary hippocampal neurons were exposed to 100 μM KA/25 μM cyclothiazide in medium at 37° C. for 1 hour, at 37° C.

hippocampal neurons = experiment: Nuclear translocation of GAPDH and GluR2 in hippocampal neurons; format: cell-based, rat; settings: peptide 10 μM, 1 hr; 100 μM KA, 10 μM MK-801, 2 μM nimodipine, 30 min
Experimental: as §1, §2, §3

[6] = tested on: HEK-293T cells cotransfected with GluR1/GluR2; experiment: Nuclear translocation of GAPDH and GluR2 in HEK-293T cells (nuclei, Western blot); format: cell-based; settings: peptide 10 μM, 1 hr; glutamate 100 μM, 30 min
Experimental: as §2, §3

[7] = tested on: HEK-293T cells expressing GluR1/3; experiment: GluR1/3 AMPAR-mediated cell death in HEK-293T cells; format: cell-based; settings: pre-incubation; HEK-293T expressing GluR1/3
Experimental: as §5

[8] = tested on: HEK-293T cells expressing GluR1/2; experiment: Quantification of AMPAR-mediated cell death (propidium iodide fluorescence) in HEK-293T cells expressing GluR1/2; format: cell-based; settings: for attenuation/inhibition of AMPAR-mediated (glutamate-induced) cell death: pretreatment 10 μM, 1 hr, 300 μM glutamate, 25 μM CTZ, 24 hr, n=9
Experimental: as §5

GAPDH = biological target: T3, GAPDH (Rattus norvegicus, UniProt P04797); experiment: Affinity purification of GAPDH from rat hippocampal extracts by GST-fusion proteins; format: binding; settings: solubilized rat hippocampal extracts
T3 construct: from tissue; host or cells: detergent extracts of rat hippocampus
Experimental: as §2
We then further divided the GluR2 NTa3 region into 30 amino acids GST-fusion proteins and mini-genes (GluR2 NTa3-1: H122-E141, 20 a.a; GluR2 NT1-3-2 Y142-K172, 30 a.a) to delineate the region of GluR2 NTa3 involved in the interactions (FIG. 6A). GluR2 NT1-3-2, but not GluR2 NTa3-1 or GST alone, precipitated GAPDH in rat hippocampal extracts in affinity purification assays (FIG. 6B). This was also supported by a blot overlay experiment where [35S]-GAPDH probe bound with GluR2 NT1-3-2, but not GluR2 NTa3-1 or GST alone (FIG. 6C).

[35S]-GAPDH = biological target: T4, [35S]-GAPDH (Homo sapiens, UniProt P04406); experiment: In vitro binding (blot overlay) with [35S]-GAPDH probe; settings: in vitro binding assay
T4 construct: made in house
Experimental: as §2
In order to delineate the region of the GluR2NT involved in the interaction with the GAPDH, three GluR2NT GST-fusion proteins [GluR2 NTa V22-S271, (250 a.a), GluR2 NTb K272-421, (150 a.a), GluR2 NTc L422-E545, (124 a.a)] were constructed (FIG. 4A). In affinity purification assays, GluR2 NTa, but not GluR2 NTb, GluR2 NTc or GST alone precipitated GAPDH in rat hippocampal brain extract (FIG. 4B). […] To clarify the nature of the interaction, blot overlay experiments were performed, which provided in vitro evidence for a direct interaction. GluR2 NTa, GluR2 NTb and GluR2 NTc were probed with in vitro translated [35S]-methionine labelled peptides encoding GAPDH ([35S]-GAPDH). The [35S]-GAPDH probe bound with GluR2 NTa, but not GluR2 NTb or GluR2 NTc. […]

[9] = tested on: HEK-293T cells expressing NR1-1a/2A NMDA receptor; experiment: NR1-1a/2A NMDA receptor-mediated cell death in HEK-293T cells; format: cell-based; settings: depletion of calcium with 5 mM EGTA; n=9
p53 = biological target: T5, p53 (Rattus norvegicus, UniProt P10361); experiment: Affinity pull down of p53 from rat hippocampal extracts by GST-GAPDH fragments; format: binding
T5 construct: from tissue; host or cells: solubilized nuclear proteins / extracts of rat hippocampus
Experimental: as §2, §4

T2 sequence (P04406 2-335 limits assumed, one chain of several): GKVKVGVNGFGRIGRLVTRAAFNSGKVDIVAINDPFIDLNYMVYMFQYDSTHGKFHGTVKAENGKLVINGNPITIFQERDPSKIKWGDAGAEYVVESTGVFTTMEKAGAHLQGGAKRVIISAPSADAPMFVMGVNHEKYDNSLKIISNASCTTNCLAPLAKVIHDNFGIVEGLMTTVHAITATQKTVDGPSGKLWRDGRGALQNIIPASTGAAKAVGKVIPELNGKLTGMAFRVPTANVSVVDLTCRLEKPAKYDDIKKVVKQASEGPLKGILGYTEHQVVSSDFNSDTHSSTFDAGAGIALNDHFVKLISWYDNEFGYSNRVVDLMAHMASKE
T4 sequence (P04406 whole entry): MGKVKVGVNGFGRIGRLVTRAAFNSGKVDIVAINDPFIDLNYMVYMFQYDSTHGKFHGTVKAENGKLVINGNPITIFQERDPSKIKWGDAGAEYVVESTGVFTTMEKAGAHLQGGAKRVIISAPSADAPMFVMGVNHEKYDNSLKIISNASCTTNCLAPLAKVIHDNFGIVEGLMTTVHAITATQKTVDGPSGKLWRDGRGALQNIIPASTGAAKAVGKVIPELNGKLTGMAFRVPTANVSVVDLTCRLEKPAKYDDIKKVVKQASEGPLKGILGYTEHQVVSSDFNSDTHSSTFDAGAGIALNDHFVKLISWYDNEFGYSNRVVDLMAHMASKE
T3 sequence (P04797 whole entry, the tested form may be a part): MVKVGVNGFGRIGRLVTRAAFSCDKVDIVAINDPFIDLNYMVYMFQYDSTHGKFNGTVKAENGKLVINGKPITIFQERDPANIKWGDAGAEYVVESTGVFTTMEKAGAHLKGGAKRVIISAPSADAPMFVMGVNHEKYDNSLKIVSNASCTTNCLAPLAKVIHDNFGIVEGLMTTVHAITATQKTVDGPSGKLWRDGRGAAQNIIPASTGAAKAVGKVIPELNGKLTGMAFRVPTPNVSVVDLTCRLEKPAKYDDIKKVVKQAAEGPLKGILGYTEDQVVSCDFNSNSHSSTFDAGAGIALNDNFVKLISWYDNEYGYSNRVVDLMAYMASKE
T1 sequence (P04797 whole entry, one chain of several): as the sequence (P04797 whole entry, the tested form may be a part) above
T5 sequence (P10361 whole entry, the tested form may be a part): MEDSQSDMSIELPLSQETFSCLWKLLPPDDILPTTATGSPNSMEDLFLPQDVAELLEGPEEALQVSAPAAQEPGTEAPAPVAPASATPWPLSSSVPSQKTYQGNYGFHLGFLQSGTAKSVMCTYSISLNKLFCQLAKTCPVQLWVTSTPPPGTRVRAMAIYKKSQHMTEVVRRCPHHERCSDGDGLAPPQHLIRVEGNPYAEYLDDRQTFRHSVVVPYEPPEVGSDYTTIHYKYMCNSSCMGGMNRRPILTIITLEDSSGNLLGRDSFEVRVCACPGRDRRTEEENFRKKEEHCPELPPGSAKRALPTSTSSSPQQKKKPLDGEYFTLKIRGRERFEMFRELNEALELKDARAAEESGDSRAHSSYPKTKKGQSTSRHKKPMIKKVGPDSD

GluR2 NT1-3-2 peptide: polypeptide of the GluR2 NT1-3-2 (Y142-K172) amino acid sequence (SEQ ID NO:1) (YYQWDKFAYLYDSDRGLSTLQAVLDSAAEKK; Y142-K172 of GluR2 subunit receptor from homo sapiens)
neurons rescued from cell death, peptide treatment before ischemia (hippocampal CA1 neurons; 30 min before ischemia): 18.2%
neurons rescued from cell death, peptide treatment after ischemia (hippocampal CA1 neurons; 2 hour after ischemia): 13.2%
inhibition of AMPAR-mediated cell death [1]: 47.6±3.3%
GAPDH-p53 interaction after peptide pretreatment (GAPDH-p53 interaction): inhibited
agonist-induced increase in GAPDH:AMPAR complex formation (GAPDH:AMPAR complex [2]): significantly inhibited
agonist-induced increase in GAPDH:AMPAR complex formation (GAPDH:AMPAR complex [3]; preincubation 10 μM, 1 hour, 100 μM glutamate, 30 min): significantly inhibited
agonist-induced GAPDH internalization after preincubation of peptide [4]: abolished
effect of the peptide itself in the absence of GluR1/GluR2 co-expression [5]: no effect
nuclear translocation of GAPDH and GluR2 (hippocampal neurons): blocked
nuclear translocation of GAPDH and GluR2 [6]: blocked
inhibition of GluR1/3 AMPAR-mediated (glutamate-induced) cell death [7]: failed to inhibit
effect of the peptide itself on cell death in the absence of glutamate treatment ([8]; GluR1/2 transfected cells, no glutamate): no effect
attenuation/inhibition of AMPAR-mediated (glutamate-induced) cell death [8]: 56±1.6%

GST-GluR2 NT1-3-2: GST-fusion protein of GluR2 NT1-3-2 Y142-K172 (YYQWDKFAYLYDSDRGLSTLQAVLDSAAEKK; not fully specified (N-terminus); also: GST fusion partner)
affinity precipitation of GAPDH (Western blot) (GAPDH): presence of GAPDH
binding of [35S]-GAPDH probe ([35S]-GAPDH): bound

O=C(O)CN(CCOCCOCCN(CC(=O)O)CC(=O)O)CC(=O)O [EGTA, reference compound]
inhibition of NR1-1a/2A NMDA receptor-mediated cell death [9]: 38±3.6%
GluR1/GluR2 AMPAR-mediated cell death on depletion of calcium ([8]; 5 mM EGTA): remained intact

N#Cc1cc2c(cc1[N+](=O)[O-])=NC(=O)C(=O)N=2 [CNQX, 6-cyano-7-nitroquinoxaline-2,3-dione]
association between GAPDH and GluR2 with antagonist (GAPDH:AMPAR complex [3]; glutamate-activated AMPA receptor): decreased

GST-GAPDH(2-2-1-1): GST-fusion protein encoding truncated GAPDH fragment I221-E250
pull down of p53 (p53): specifically pulled down

N[C@@H](CCC(=O)O)C(=O)O [Glutamate]
CO-IP of GAPDH by the GluR2 subunit antibody on agonist activation (GAPDH:AMPAR complex [3]): increase

Cc1ccc(-c2cn3c4c(sc3n2)CCCC4)cc1 [cyclic PFT-α, reference compound]
inhibition of GluR1/3 AMPAR-mediated (glutamate-induced) cell death [7]: failed to inhibit
attenuation/inhibition of AMPAR-mediated (glutamate-induced) cell death [8]: 49.8±8.3%
